# Assay results as given in patent US9388468B2, “Truncated CD20 protein, deltaCD20” (ETABLISSEMENT FRANCAIS DU SANG (EFS), priority 2008, dated 2016).
# Test system: RMAS-HHD cells
# Experiment: T cytotoxic response (CTL) induction by peptide vaccination, 51Cr release specific lysis
# Assay type: in vivo
# Protocol: The immunogenicity of the ΔCD20a peptides was evaluated by generating CTL on HLA-A2/DR1 and Knock-Out (KO) transgenic mice for H-2 class I and II.
# The mice (4 per group) are immunised with pools of 2 or 3 peptides (2 injections at the base of the tail at an 8-day interval) with: 50 μg of each peptide, 100 μg of helper peptide (20 mers peptide from CMV-specific pp65), the whole co-emulsified with incomplete Freud adjuvant.
# Seven days after the second immunisation, the spleens of the mice are removed and the splenocytes are re-stimulated in vitro with 4 μg/ml of each peptide separately. On the fifth day of culture, the respondent populations are tested to determine specific cytotoxicity. The cells, with conclusive cytotoxicity, are re-stimulated in vitro at one-week intervals to obtain specific CTLs.
# RMAS-HHD cells are used as targets to study cytotoxicity. These target cells are filled with 10 μg/ml of the peptide under test, or a non-relevant control peptide, at 37° C. for 90 minutes and labelled with 100 μCi of 51Cr for 90 minutes, and washed three times. […] After incubation, 50 μl of supernatant is collected, transferred into specific plates (Lumaplate) and the radioactivity is measured in a γ counter. The specific lysis percentage is calculated using the formula: [(experimental 51 Cr release−spontaneous 51 Cr release)/(maximum 51 Cr release−spontaneous 51 Cr release)]×100.
substance,measurement,setting,value
"peptide No. 4: ΔCD20-specific peptide overlapping the alternative splicing junction zone, restricted for HLA-A*0201; probably SEQ ID NO: 9 (RMSSLELVI)",mice that developed T cytotoxic response against the peptide,"immunisation group A, 4 mice per group, 2 injections of 50 μg of each peptide, splenocytes re-stimulated in vitro",Three out of 4
same,CTLs generated by immunisation killing peptide-charged RMAS-HHD targets,"targets charged with 10 μg/ml peptide, not cells charged with non-relevant peptide",generates CTLs killing RMAS-HHD targets charged with said peptide
